Measured values as given in article PMC7033671 (ACS Omega, 2020).

Legend:
[1] = test system: K562; assay: CellTiter-Blue cell viability, K562; assay type: cell-based, human; conditions: for IC50: Homo sapiens, K562, 72 h, read-out: IC50 against K562
[2] = test system: KCL22; assay: CellTiter-Blue cell viability, KCL22; assay type: cell-based, human; conditions: for IC50: Homo sapiens, KCL-22, 72 h, read-out: IC50 against KCL22
[3] = test system: KCL22-IR; assay: CellTiter-Blue cell viability, KCL22-IR; assay type: cell-based, human; conditions: for IC50: Homo sapiens, 72 h, read-out: IC50 against KCL22-IR
[4] = target: MNK2 (Homo sapiens, UniProt Q9HBH9); assay: biochemical; conditions: read-out: inhibition of MNK2
Sequence of MNK2 (Q9HBH9 whole entry): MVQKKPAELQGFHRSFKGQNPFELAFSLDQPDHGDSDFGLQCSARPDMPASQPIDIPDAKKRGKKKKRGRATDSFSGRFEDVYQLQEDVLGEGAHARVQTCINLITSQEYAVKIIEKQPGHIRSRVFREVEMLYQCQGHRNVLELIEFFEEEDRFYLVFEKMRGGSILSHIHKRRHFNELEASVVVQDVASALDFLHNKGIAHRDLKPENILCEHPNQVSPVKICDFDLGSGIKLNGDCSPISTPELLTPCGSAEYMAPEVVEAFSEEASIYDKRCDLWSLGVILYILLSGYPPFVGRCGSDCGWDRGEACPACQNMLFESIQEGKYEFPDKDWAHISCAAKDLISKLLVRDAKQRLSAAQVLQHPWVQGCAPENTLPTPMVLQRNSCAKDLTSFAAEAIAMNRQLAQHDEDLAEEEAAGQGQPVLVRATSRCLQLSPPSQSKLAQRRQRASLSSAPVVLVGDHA

[5] = target: T1, FLT3 (ITD) (Homo sapiens, UniProt P36888, ITD); assay: Reaction Biology 33P-ATP kinase assay, FLT3; conditions: read-out: inhibition against FLT3(ITD)
T1 sequence (P36888 564-993): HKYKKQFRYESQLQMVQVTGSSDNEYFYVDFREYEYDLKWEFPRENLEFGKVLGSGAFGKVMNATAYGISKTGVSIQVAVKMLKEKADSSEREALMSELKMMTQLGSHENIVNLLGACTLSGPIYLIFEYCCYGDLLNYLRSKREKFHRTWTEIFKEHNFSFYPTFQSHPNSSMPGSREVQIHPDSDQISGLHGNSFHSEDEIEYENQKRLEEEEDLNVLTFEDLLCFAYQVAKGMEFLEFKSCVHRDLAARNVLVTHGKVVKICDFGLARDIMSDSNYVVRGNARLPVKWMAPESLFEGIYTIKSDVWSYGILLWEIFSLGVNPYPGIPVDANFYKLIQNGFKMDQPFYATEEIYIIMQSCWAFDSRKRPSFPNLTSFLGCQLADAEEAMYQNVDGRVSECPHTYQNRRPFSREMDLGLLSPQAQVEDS

[6] = target: ABL1 (T315I) (Homo sapiens, UniProt P00519, T315I); assay: Reaction Biology 33P-ATP kinase assay, ABL1; conditions: read-out: inhibition against ABL1(T315I)
[7] = test system: MOLM14; assay: CellTiter-Blue cell viability, MOLM14; assay type: cell-based; conditions: Homo sapiens, MOLM-14, 72 h, read-out: IC50 against MOLM14
[8] = target: c-Kit (Homo sapiens, UniProt P10721); assay: Reaction Biology 33P-ATP kinase assay, c-Kit; assay type: biochemical
Sequence of c-Kit (P10721 26-976): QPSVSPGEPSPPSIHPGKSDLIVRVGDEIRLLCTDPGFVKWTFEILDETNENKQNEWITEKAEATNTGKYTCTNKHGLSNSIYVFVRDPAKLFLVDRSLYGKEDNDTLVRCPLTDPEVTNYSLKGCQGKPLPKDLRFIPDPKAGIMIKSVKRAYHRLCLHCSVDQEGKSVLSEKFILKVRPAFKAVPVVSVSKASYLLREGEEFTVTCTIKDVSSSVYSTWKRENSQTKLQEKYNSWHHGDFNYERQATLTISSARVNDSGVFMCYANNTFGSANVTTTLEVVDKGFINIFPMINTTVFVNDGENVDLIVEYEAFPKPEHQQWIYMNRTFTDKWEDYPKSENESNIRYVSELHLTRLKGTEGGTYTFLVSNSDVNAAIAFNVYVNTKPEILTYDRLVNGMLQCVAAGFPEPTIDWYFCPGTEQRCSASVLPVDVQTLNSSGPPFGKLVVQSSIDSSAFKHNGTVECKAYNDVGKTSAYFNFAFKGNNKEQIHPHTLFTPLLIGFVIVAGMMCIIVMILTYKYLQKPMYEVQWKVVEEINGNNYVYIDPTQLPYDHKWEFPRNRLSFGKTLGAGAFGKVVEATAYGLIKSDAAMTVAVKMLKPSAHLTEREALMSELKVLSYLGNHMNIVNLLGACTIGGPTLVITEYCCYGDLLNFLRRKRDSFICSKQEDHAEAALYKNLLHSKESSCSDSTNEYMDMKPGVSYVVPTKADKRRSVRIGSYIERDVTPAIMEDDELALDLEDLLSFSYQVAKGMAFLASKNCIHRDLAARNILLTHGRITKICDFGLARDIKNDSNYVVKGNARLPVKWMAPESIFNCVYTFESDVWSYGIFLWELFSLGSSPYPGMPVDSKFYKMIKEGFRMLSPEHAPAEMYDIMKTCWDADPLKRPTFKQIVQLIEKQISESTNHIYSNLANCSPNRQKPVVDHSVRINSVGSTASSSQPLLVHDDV

[9] = target: c-SRC (Homo sapiens, UniProt P12931); assay: Reaction Biology 33P-ATP kinase assay, c-SRC; conditions: read-out: inhibition against c-Src
Sequence of c-SRC (P12931 whole entry): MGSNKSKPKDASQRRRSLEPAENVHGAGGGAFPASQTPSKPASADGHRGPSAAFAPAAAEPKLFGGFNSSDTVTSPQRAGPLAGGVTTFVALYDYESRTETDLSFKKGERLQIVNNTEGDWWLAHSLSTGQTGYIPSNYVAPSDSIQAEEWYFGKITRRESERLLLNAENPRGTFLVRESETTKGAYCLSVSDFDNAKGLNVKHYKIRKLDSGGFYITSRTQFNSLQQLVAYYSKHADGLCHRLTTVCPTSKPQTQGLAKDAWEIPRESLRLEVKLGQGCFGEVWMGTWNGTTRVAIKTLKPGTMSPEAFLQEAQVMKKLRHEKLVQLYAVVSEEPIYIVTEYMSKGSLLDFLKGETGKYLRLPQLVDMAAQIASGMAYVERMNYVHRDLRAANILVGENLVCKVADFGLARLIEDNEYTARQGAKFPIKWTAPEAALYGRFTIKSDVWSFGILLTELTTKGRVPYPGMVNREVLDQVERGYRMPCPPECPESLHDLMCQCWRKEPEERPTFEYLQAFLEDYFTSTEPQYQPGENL

[10] = target: T2, FLT3 (D835Y) (Homo sapiens, UniProt P36888, D835Y); assay: Reaction Biology 33P-ATP kinase assay, FLT3; conditions: read-out: inhibition against FLT3(D835Y)
T2 sequence (P36888 27-993 D835Y): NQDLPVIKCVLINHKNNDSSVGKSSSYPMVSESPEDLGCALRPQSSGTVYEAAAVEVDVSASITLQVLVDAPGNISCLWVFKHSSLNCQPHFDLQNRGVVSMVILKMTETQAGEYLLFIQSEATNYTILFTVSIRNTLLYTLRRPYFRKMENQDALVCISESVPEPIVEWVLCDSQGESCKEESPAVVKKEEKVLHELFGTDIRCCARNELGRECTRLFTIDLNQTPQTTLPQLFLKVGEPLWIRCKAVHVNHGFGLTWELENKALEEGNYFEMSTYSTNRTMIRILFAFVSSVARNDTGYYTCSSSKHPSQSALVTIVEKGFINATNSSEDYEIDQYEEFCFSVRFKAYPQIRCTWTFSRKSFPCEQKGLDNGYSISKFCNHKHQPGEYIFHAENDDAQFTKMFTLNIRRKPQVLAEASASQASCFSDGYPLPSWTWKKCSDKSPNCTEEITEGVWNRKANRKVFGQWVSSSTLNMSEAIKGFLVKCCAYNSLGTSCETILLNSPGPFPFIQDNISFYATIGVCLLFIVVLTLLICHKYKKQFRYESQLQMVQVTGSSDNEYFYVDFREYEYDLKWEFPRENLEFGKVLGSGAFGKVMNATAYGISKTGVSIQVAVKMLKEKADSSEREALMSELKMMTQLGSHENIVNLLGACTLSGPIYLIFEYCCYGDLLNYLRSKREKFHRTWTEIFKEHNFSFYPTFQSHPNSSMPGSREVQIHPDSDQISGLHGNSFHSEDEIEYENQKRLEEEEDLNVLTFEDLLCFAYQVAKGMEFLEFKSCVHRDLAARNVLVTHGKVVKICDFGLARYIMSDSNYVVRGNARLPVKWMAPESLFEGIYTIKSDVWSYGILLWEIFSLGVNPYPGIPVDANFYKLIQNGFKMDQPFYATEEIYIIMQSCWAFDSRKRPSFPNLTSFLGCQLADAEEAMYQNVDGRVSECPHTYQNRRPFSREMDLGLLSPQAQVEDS

[11] = test system: MV-4-11; assay: CellTiter-Blue cell viability, MV-4-11; assay type: cell-based; conditions: Homo sapiens, MV4-11, 72 h, read-out: IC50 against MV-4-11
[12] = test system: MOLM13-res; assay: CellTiter-Blue cell viability, MOLM13-res; assay type: cell-based; conditions: Homo sapiens, 72 h, read-out: IC50 against MOLM13-res
[13] = test system: MOLM14-D835Y; assay: CellTiter-Blue cell viability, MOLM14-D835Y; assay type: cell-based; conditions: Homo sapiens, 72 h, read-out: IC50 against MOLM14-D835Y
[14] = test system: MOLM14-F691L; assay: CellTiter-Blue cell viability, MOLM14-F691L; assay type: cell-based; conditions: Homo sapiens, MOLM-14, 72 h, read-out: IC50 against MOLM14-F691L
[15] = test system: LC2/Ad; assay: CellTiter-Blue cell viability, LC2/Ad; assay type: cell-based; conditions: Homo sapiens, LC-2-ad, 72 h, read-out: IC50 against LC2/Ad
[16] = test system: H520; assay: CellTiter-Blue cell viability, H520; assay type: cell-based; conditions: Homo sapiens, NCI-H520, 72 h, read-out: IC50 against H520

Compound | IC50 [1] [nM] | IC50 [2] [nM] | IC50 [3] [nM] | inhibition at 0.123 µM [4] [%] | inhibition at 0.004 µM [5] [%] | inhibition at 0.111 µM [9] [%] | other results
CN1CCN(Cc2ccc(NC(=O)c3cccc(C#Cc4cnc5cccnn45)c3)cc2C(F)(F)F)CC1 [HSL331, 3-(Imidazo[1,2-b]pyridazin-3-ylethynyl)-N-(4-((4-methylpiperazin-1-yl)methyl)-3-(trifluoromethyl)phenyl)benzamide] | 0.26 ± 0.002 | 0.63 ± 0.002 | 2.86 ± 0.04 |  |  |  | 
CN1CCN(Cc2ccc(NC(=O)c3cncc(C#Cc4cnc5ccccn45)c3)cc2C(F)(F)F)CC1 [HSL381, 5-(Imidazo[1,2-a]pyridin-3-ylethynyl)-N-(4-((4-methylpiperazin-1-yl)methyl)-3-(trifluoromethyl)phenyl)nicotinamide] | 0.57 ± 0.003 | 0.89 ± 0.005 | 4.24 ± 0.05 | 84 | 91 |  | inhibition at 0.123 µM [6]: 73%
CN1CCN(Cc2ccc(NC(=O)c3cncc(C#Cc4cnc5cccnn45)c3)cc2C(F)(F)F)CC1 [HSN748, 5-(Imidazo[1,2-b]pyridazin-3-ylethynyl)-N-(4-((4-methylpiperazin-1-yl)methyl)-3-(trifluoromethyl)phenyl)nicotinamide] |  |  |  | 85 | 86 | < 10 | IC50 [7]: 0.25 nM; IC50 [8]: 96 ± 4.21 nM; inhibition at 0.111 µM [10]: 87%
Cc1ccc(C(=O)Nc2ccc(CN3CCN(C)CC3)c(C(F)(F)F)c2)cc1C#Cc1cnc2cccnn12 [ponatinib, reference compound] | 0.6 ± 0.002 | 0.14 ± 0.003 | 0.66 ± 0.005 | 32 | < 40 | 98 | IC50 [11]: 0.09 nM; IC50 [12]: 24.1 nM; IC50 [7]: 0.45 nM; IC50 [13]: 52.6 nM; IC50 [14]: 6.8 nM; IC50 [15]: 35.1 nM; IC50 [16]: 128 nM
CN1CCN(Cc2ccc(NC(=O)c3cncc(C#Cc4cnc5ncccn45)c3)cc2C(F)(F)F)CC1 [HSL382, 5-(Imidazo[1,2-a]pyrimidin-3-ylethynyl)-N-(4-((4-methylpiperazin-1-yl)methyl)-3-(trifluoromethyl)phenyl)nicotinamide] |  | > 100 | > 100 |  |  |  | IC50 against K562 ([1]; CML cell line (ABL1), 72 h treatment): inactive; IC50 against KCL22 ([2]; CML cell line, 72 h treatment): inactive; IC50 against KCL22-IR ([3]; imatinib-resistant CML line, 72 h treatment): inactive
CN1CCN(Cc2ccc(C(=O)Nc3cncc(C#Cc4cnc5cccnn45)c3)cc2C(F)(F)F)CC1 [HSL338, N-(5-(Imidazo[1,2-b]pyridazin-3-ylethynyl)pyridin-3-yl)-4-((4-methylpiperazin-1-yl)methyl)-3-(trifluoromethyl)benzamide] | 0.45 ± 0.002 | 1.4 ± 0.02 | 4.24 ± 0.05 |  | 84 |  | 

Further lines, with some results ahead:

IC50 [1] [nM] | Compound | IC50 [2] [nM] | IC50 [3] [nM] | inhibition at 0.123 µM [4] [%] | inhibition at 0.004 µM [5] [%] | inhibition at 0.111 µM [9] [%] | other results
0.94 ± 0.002 | CN1CCN(Cc2ccc(NC(=O)c3cncc(C#Cc4cnc5cnccn45)c3)cc2C(F)(F)F)CC1 [HSL385, 5-(Imidazo[1,2-a]pyrazin-3-ylethynyl)-N-(4-((4-methylpiperazin-1-yl)methyl)-3-(trifluoromethyl)phenyl)nicotinamide] | 2.62 ± 0.06 | 17.2 ± 0.86 | 72 |  |  | 
1.83 ± 0.02 | CN1CCN(Cc2ccc(NC(=O)c3cncc(C#Cc4cncc5nccn45)c3)cc2C(F)(F)F)CC1 [HSL407, 5-(Imidazo[1,2-a]pyrazin-5-ylethynyl)-N-(4-((4-methylpiperazin-1-yl)methyl)-3-(trifluoromethyl)phenyl)nicotinamide] | 2.93 ± 0.04 | 49.7 ± 2.5 |  |  |  | 
28.1 ± 0.6 | CN1CCN(Cc2ccc(NC(=O)c3cncc(C#Cc4cnc5ccnn5c4)c3)cc2C(F)(F)F)CC1 [HSL412, N-(4-((4-Methylpiperazin-1-yl)methyl)-3-(trifluoromethyl)phenyl)-5-(pyrazolo[1,5-a]pyrimidin-6-ylethynyl)nicotinamide] | 28.1 ± 0.37 | > 100 |  |  |  | 
0.06 ± 0.002 | Cc1ncc(C(=O)Nc2ccc(CN3CCN(C)CC3)c(C(F)(F)F)c2)cc1C#Cc1cnc2cccnn12 [HSL420, 5-(Imidazo[1,2-b]pyridazin-3-ylethynyl)-6-methyl-N-(4-((4-methylpiperazin-1-yl)methyl)-3-(trifluoromethyl)phenyl)nicotinamide] | 0.06 ± 0.002 | 0.46 ± 0.01 |  |  | 32 | inhibition at 0.123 µM [6]: 83%
